Columns and labels:
[1] = system: mouse pancreatic tissues (islet β cells); assay: Histopathology of pancreas of high-fat fed mice (HE, ERK immunohistochemistry, immunofluorescence); assay type: in vivo
Method: In order to detect a blood glucose homeostasis level and an insulin function of each mouse, an oral glucose tolerance test (OGTT) for the mice was performed. At the night before this test, test mice were fasted but not water for 16 h and transferred from a feeding room to a clean experimental operation room, so that the animals could adapt to the environment. Before the OGTT started, a weight of each mouse was accurately weighed, and an injection dose of glucose was calculated according to 2 mg/g body weight, and a tail was cut for collecting blood at 0 minute, 15 minutes, 30 minutes, 60 minutes and 120 minutes after intragastric injection of the glucose. A first drop of blood after tail cutting was discarded, and then concentrations of blood glucose (mmol/L) were continuously detected using an Accu-Chek blood glucose meter (Roche diagnosis, USA). The test mice were fasted for 12 h at the night before sampling, and were anesthetized by intraperitoneal injection of a 10% chloral hydrate-containing solution. After the intraperitoneal cavities of the mice were cut, blood was collected by apical blood collection, and the test mice were killed. After being collected, blood samples were left for still standing for 2 h at the room temperature, and then centrifuged for 15 min at […], serum at the upper layer was sucked, and then biochemical detection was performed immediately. After the blood samples were collected, pancreatic tissues of the mice were immediately cut off so as to prevent pancreatic dissolution, and heads and tails of pancreas were separately stored. Then other tissues of the mice were extracted. Pictures of tissue morphologies of various parts of the mice were photographed and stored, and weights of tissues were weighed and precisely recorded. Subsequently, the extracted tissues were divided into two parts, one of the two parts was sub-packed into an EP tube, immediately rapidly frozen in liquid nitrogen and then transferred to a −80° C. refrigerator for cryopreservation; and the other part was sub-packed into an EP tube containing 4% paraformaldehyde to be fixed for making pathological tissue sections later.
During the subsequent test, in order to observe pathological morphologies of animal tissues, paraffin sections of mouse tissues were made and subjected to HE staining, immunohistochemical staining and immunofluorescence staining. Also, mouse pancreatic tail tissues in a valeric acid intervention group and a control group were taken out from the −80° C. refrigerator and underwent TMT labeled quantitative proteome detection of the animal tissues, and differential proteins were subjected to a Western Blot test and a real-time fluorescence quantitative polymerase chain reaction (QRT PCR) test for the animal tissues to verify test results.

[2] = system: Leptin receptor gene deficient db/db mice; assay: Type 2 diabetes model db/db mice: food intake, body weight, blood glucose-related indexes; assay type: in vivo
Method: The following drugs are taken as comparative examples: • 1. Comparative example where an existing drug serves as a positive control • (1) High-fat fed C57BL6/J mice • Sodium butyrate gavage intervention group: 75.0 mg/kg • (2) Type 2 diabetes model db/db mice • Sodium butyrate gavage intervention group: 75.0 mg/kg • Harmine gavage intervention group: 10.0 mg/kg • Metformin gavage intervention group: 100.0 mg/kg • (3) Cell line of mouse insulinoma islet β cells (Beta-TC-6) • Sodium butyrate intervention group: 1.0 mmol/L • Harmine intervention group: 10.0 μmmol/L • (4) Mouse islet β primary cell • Sodium butyrate intervention group: 1.0 mmol/L • Harmine intervention group: 10.0 μmmol/L • 2. A control test is taken as a comparative example • (1) High-fat fed C57BL6/J mice • Ordinary feed feeding group, and high-fat feed PBS gavage group • (2) Type 2 diabetes model db/db mice • Control feeding group and PBS gavage group • (3) Cell line of mouse insulinoma islet β cells (Beta-TC-6) • Blank control group, and palmitic acid (PA) intervention negative control group • (4) Mouse islet β primary cell • Blank control group, and PA intervention negative control group • Results are as follows:
(II) In the animal test, the therapeutic effect of the valeric acid on diabetes is observed by using Leptin receptor gene deficient db/db mice (purchased from Nanjing Junke Biotechnology Co., Ltd.) as test subjects.

**Q.** For `CCCCC(=O)O` [valeric acid], which “proportion of ERK positive areas” value ([1]; ERK staining of paraffin sections) is on record?
**A.** The value was “increased significantly”.

**Q.** What about the islet areas ([1]; HE staining, HF-V group) of the same compound?
**A.** Its islet areas is “obviously enlarged”.

**Q.** And the number of islets ([1]; HE staining, HF-V group)?
**A.** The number of islets was “increased”.

**Q.** And the “number of β cells in the islet” value ([1]; HE staining, HF-V group)?
**A.** Its value is “significantly increased”.

**Q.** What about the “number of Ki67 stained nuclei in the pancreas” value ([1]; insulin/Ki67/DAPI immunofluorescence) of the same compound?
**A.** Its value is “increased significantly”.

**Q.** And the “secretion proportion of the insulin in the pancreas” value ([1]; insulin/glucagon/DAPI immunofluorescence)?
**A.** Its value is “increased significantly”.

**Q.** And the “area under the OGTT curve” value ([2]; compared with metformin and Harmine groups)?
**A.** The value was “smallest”.

**Q.** What about the “decrease of fasting blood glucose” value ([2]; compared with the PBS control group) of the same compound?
**A.** Its value is ~10 mmol/L.

**Q.** And the insulin secretion ([2]; comparison among groups / vs PBS control group)?
**A.** The insulin secretion was “best”.

**Q.** And the weights ([2]; vs PBS control group)?
**A.** Its weights is “decreased significantly”.
